Experiments:
Type in all cases: in vivo
[1] = system: Ryegrass, Italian (Italian ryegrass, Lolium multiflorum); assay: Test A1 postemergence, Ryegrass, Italian; details: Postemergence
Text: (§1) Seeds of plant species selected from, blackgrass (Alopecurus myosuroides), corn (Zea mays), Foxtail, Giant (giant foxtail, Setaria faberi), goosegrass (Eleusine indica), kochia (Bassia scoparia), Oat, Wild (wild oat, Avena fatua), Pigweed, Palmer (palmer amaranth, palmer pigweed, Amaranthus palmeri), ragweed (common ragweed, Ambrosia artemisiifolia), Ryegrass, Italian (Italian ryegrass, Lolium multiflorum), soybean (Glycine max), and wheat (Triticum aestivum) were planted into a blend of loam soil and sand and treated preemergence with a directed soil spray using test chemicals formulated in a non-phytotoxic solvent mixture which included a surfactant. At the same time, plants selected from these crop and weed species and also galium (catchweed bedstraw, Galium aparine) and horseweed (Erigeron canadensis) were planted in pots containing the same blend of loam soil and sand and treated with postemergence applications of test chemicals formulated in the same manner. Plants ranged in height from 2 to 10 cm and were in the one- to two-leaf stage for the postemergence treatment. […] A dash (-) response means no test result.

[2] = system: blackgrass (Alopecurus myosuroides); assay: Test A1 preemergence, blackgrass
Text: as §1

[3] = system: Foxtail, Giant (giant foxtail, Setaria faberi); assay: Test A1 postemergence, Foxtail, Giant; details: Postemergence
Text: as §1

[4] = system: ragweed (common ragweed, Ambrosia artemisiifolia); assay: Test A1 preemergence, ragweed
Text: as §1

corn (Zea mays) [5] = assay: Test A1 postemergence, corn; details: Postemergence
Text: as §1

soybean (Glycine max) [6] = assay: Test A1 preemergence, soybean
Text: as §1

[7] = system: wheat (Triticum aestivum); assay: Test A1 preemergence, wheat
Text: as §1

[8] = system: barnyardgrass (Echinochloa crus-galli); assay: Test B1 flooded paddy test, barnyardgrass; details: 250 g ai/ha, Flood, applied to paddy water, 2-leaf stage, visually evaluated after 10 to 14 days
Text: (§2) A dash (-) response means no test result.

[9] = system: horseweed (Erigeron canadensis); assay: Test A1 postemergence, horseweed; details: Postemergence
Text: as §1

[10] = system: Oat, Wild (wild oat, Avena fatua); assay: Test A1 preemergence, Oat, Wild
Text: as §1

soybean (Glycine max) [11] = assay: Test A1 postemergence, soybean; details: Postemergence
Text: as §1

[12] = system: Pigweed, Palmer (palmer amaranth, palmer pigweed, Amaranthus palmeri); assay: Test A1 preemergence, Pigweed, Palmer
Text: as §1

[13] = system: Foxtail, Giant (giant foxtail, Setaria faberi); assay: Test A1 preemergence, Foxtail, Giant
Text: as §1

[14] = system: wheat (Triticum aestivum); assay: Test A1 postemergence, wheat; details: Postemergence
Text: as §1

kochia (Bassia scoparia) [15] = assay: Test A1 preemergence, kochia
Text: as §1

[16] = system: Pigweed, Palmer (palmer amaranth, palmer pigweed, Amaranthus palmeri); assay: Test A1 postemergence, Pigweed, Palmer; details: Postemergence
Text: as §1

[17] = system: Oat, Wild (wild oat, Avena fatua); assay: Test A1 postemergence, Oat, Wild; details: Postemergence
Text: as §1

[18] = system: goosegrass (Eleusine indica); assay: Test A1 postemergence, goosegrass; details: Postemergence
Text: as §1

[19] = system: ragweed (common ragweed, Ambrosia artemisiifolia); assay: Test A1 postemergence, ragweed; details: Postemergence
Text: as §1

kochia (Bassia scoparia) [20] = assay: Test A1 postemergence, kochia; details: Postemergence
Text: as §1

corn (Zea mays) [21] = assay: Test A1 preemergence, corn
Text: as §1

[22] = system: galium (catchweed bedstraw, Galium aparine); assay: Test A1 postemergence, galium; details: Postemergence
Text: as §1

[23] = system: goosegrass (Eleusine indica); assay: Test A1 preemergence, goosegrass
Text: as §1

[24] = system: Ryegrass, Italian (Italian ryegrass, Lolium multiflorum); assay: Test A1 preemergence, Ryegrass, Italian
Text: as §1

rice (Oryza sativa) = assay: Test B1 flooded paddy test, rice; details: 250 g ai/ha, Flood, applied to paddy water, 2-leaf stage, visually evaluated after 10 to 14 days
Text: as §2

[25] = system: blackgrass (Alopecurus myosuroides); assay: Test A1 postemergence, blackgrass; details: Postemergence, 0 to 100 scale (0 no effect, 100 complete control)
Text: as §1

[26] = system: ducksalad (Heteranthera limosa); assay: Test B1 flooded paddy test, ducksalad; details: 250 g ai/ha, Flood, applied to paddy water, 2-leaf stage, visually evaluated after 10 to 14 days
Text: as §2

[27] = 31 g ai/ha, 0 to 100 scale (0 no effect, 100 complete control), 10 days
[28] = 31 g ai/ha, 0 to 100 scale (0 no effect, 100 complete control)
[29] = 125 g ai/ha, 0 to 100 scale, 0 no effect, 100 complete control

With `Cc1cc(C2CC2)c(C2=NOC3CCCC23)cc1NS(=O)(=O)C(F)(F)F` (stereo not drawn) [Compound 307] the “Plant response rating, Ryegrass, Italian” value [1, 27] was 20, the “Plant response rating, Ryegrass, Italian” value ([1]; 125 g ai/ha, 0 to 100 scale) was 80 and the “Plant response rating, Blackgrass” value [2, 28] was 0. The “Plant response rating, Blackgrass” value [2, 29] was 50, the “Plant response rating, Foxtail, Giant” value [3, 27] was 20 and the “Plant response rating, Foxtail, Giant” value ([3]; 125 g ai/ha, 0 to 100 scale) was 40. The “Plant response rating, Ragweed” value [4, 28] was 0, the “Plant response rating, Ragweed” value [4, 29] was 60 and the “Plant response rating, Corn” value (corn (Zea mays) [5]; [27]) was 0. The “Plant response rating, Corn” value (corn (Zea mays) [5]; 125 g ai/ha, 0 to 100 scale) was 0, the “Plant response rating, Soybean” value (soybean (Glycine max) [6]; [28]) was 0 and the “Plant response rating, Soybean” value (soybean (Glycine max) [6]; [29]) was 30. The “Plant response rating, Wheat” value [7, 28] was 10, the “Plant response rating, Wheat” value [7, 29] was 80 and the “Plant response rating, Barnyardgrass (0 to 100 scale, 0 is no effect, 100 is complete control)” value [8] was 60. The “Plant response rating, Horseweed” value [9, 27] was 30, the “Plant response rating, Horseweed” value ([9]; 125 g ai/ha, 0 to 100 scale) was 80 and the “Plant response rating, Oat, Wild” value [10, 28] was 0. The “Plant response rating, Oat, Wild” value [10, 29] was 40, the “Plant response rating, Soybean” value (soybean (Glycine max) [11]; [27]) was 10 and the “Plant response rating, Soybean” value (soybean (Glycine max) [11]; 125 g ai/ha, 0 to 100 scale) was 50. For the same compound, the “Plant response rating, Pigweed, Palmer” value [12, 28] was 30, the “Plant response rating, Pigweed, Palmer” value [12, 29] was 80 and the “Plant response rating, Foxtail, Giant” value [13, 28] was 50. For the same compound, the “Plant response rating, Foxtail, Giant” value [13, 29] was 100, the “Plant response rating, Wheat” value [14, 27] was 30 and the “Plant response rating, Wheat” value ([14]; 125 g ai/ha, 0 to 100 scale) was 40. The “Plant response rating, Kochia” value (kochia (Bassia scoparia) [15]; [28]) was 0, the “Plant response rating, Kochia” value (kochia (Bassia scoparia) [15]; [29]) was 10 and the “Plant response rating, Pigweed, Palmer” value [16, 27] was 0. For the same compound, the “Plant response rating, Pigweed, Palmer” value ([16]; 125 g ai/ha, 0 to 100 scale) was 40, the “Plant response rating, Oat, Wild” value [17, 27] was 0 and the “Plant response rating, Oat, Wild” value ([17]; 125 g ai/ha, 0 to 100 scale) was 20. For the same compound, the “Plant response rating, Goosegrass” value [18, 27] was 30, the “Plant response rating, Goosegrass” value ([18]; 125 g ai/ha, 0 to 100 scale) was 80 and the “Plant response rating, Ragweed” value [19, 27] was 0. For the same compound, the “Plant response rating, Ragweed” value ([19]; 125 g ai/ha, 0 to 100 scale) was 80, the “Plant response rating, Kochia” value (kochia (Bassia scoparia) [20]; [27]) was 0 and the “Plant response rating, Kochia” value (kochia (Bassia scoparia) [20]; 125 g ai/ha, 0 to 100 scale) was 30. For the same compound, the “Plant response rating, Corn” value (corn (Zea mays) [21]; [28]) was 0, the “Plant response rating, Corn” value (corn (Zea mays) [21]; [29]) was 0 and the “Plant response rating, Galium” value [22, 27] was 40. For the same compound, the “Plant response rating, Galium” value ([22]; 125 g ai/ha, 0 to 100 scale) was 60, the “Plant response rating, Goosegrass” value [23, 28] was 80 and the “Plant response rating, Goosegrass” value [23, 29] was 100. For the same compound, the “Plant response rating, Ryegrass, Italian” value [24, 28] was 50, the “Plant response rating, Ryegrass, Italian” value [24, 29] was 100 and the “Plant response rating, Rice (0 to 100 scale, 0 is no effect, 100 is complete control)” value (rice (Oryza sativa)) was 0. The “Plant response rating, Blackgrass” value ([25]; 31 g ai/ha, 10 days) was 0, the “Plant response rating, Blackgrass” value ([25]; 125 g ai/ha) was 10 and the “Plant response rating, Ducksalad (0 to 100 scale, 0 is no effect, 100 is complete control)” value [26] was 70.

`Cc1cc(C)c(N(COC(=O)C(C)C)S(=O)(=O)C(F)(F)F)cc1C1=NOC2CCCC12` (stereo not drawn) [Compound 308] was tested, and the “Plant response rating, Ryegrass, Italian” value [1, 27] was 0, the “Plant response rating, Ryegrass, Italian” value ([1]; 125 g ai/ha, 0 to 100 scale) was 30 and the “Plant response rating, Blackgrass” value [2, 28] was 0. For the same compound, the “Plant response rating, Blackgrass” value [2, 29] was 50, the “Plant response rating, Foxtail, Giant” value [3, 27] was 0 and the “Plant response rating, Foxtail, Giant” value ([3]; 125 g ai/ha, 0 to 100 scale) was 40. For the same compound, the “Plant response rating, Ragweed” value [4, 28] was 0, the “Plant response rating, Ragweed” value [4, 29] was 50 and the “Plant response rating, Corn” value (corn (Zea mays) [5]; [27]) was 0. The “Plant response rating, Corn” value (corn (Zea mays) [5]; 125 g ai/ha, 0 to 100 scale) was 30, the “Plant response rating, Soybean” value (soybean (Glycine max) [6]; [28]) was 0 and the “Plant response rating, Soybean” value (soybean (Glycine max) [6]; [29]) was 30. For the same compound, the “Plant response rating, Wheat” value [7, 28] was 20, the “Plant response rating, Wheat” value [7, 29] was 80 and the “Plant response rating, Barnyardgrass (0 to 100 scale, 0 is no effect, 100 is complete control)” value [8] was 95. For the same compound, the “Plant response rating, Horseweed” value [9, 27] was 0, the “Plant response rating, Horseweed” value ([9]; 125 g ai/ha, 0 to 100 scale) was 60 and the “Plant response rating, Oat, Wild” value [10, 28] was 0. For the same compound, the “Plant response rating, Oat, Wild” value [10, 29] was 50, the “Plant response rating, Soybean” value (soybean (Glycine max) [11]; [27]) was 40 and the “Plant response rating, Soybean” value (soybean (Glycine max) [11]; 125 g ai/ha, 0 to 100 scale) was 60. The “Plant response rating, Pigweed, Palmer” value [12, 28] was 40, the “Plant response rating, Pigweed, Palmer” value [12, 29] was 70 and the “Plant response rating, Foxtail, Giant” value [13, 28] was 50. The “Plant response rating, Foxtail, Giant” value [13, 29] was 80, the “Plant response rating, Wheat” value [14, 27] was 10 and the “Plant response rating, Wheat” value ([14]; 125 g ai/ha, 0 to 100 scale) was 50. For the same compound, the “Plant response rating, Kochia” value (kochia (Bassia scoparia) [15]; [28]) was 20, the “Plant response rating, Kochia” value (kochia (Bassia scoparia) [15]; [29]) was 70 and the “Plant response rating, Pigweed, Palmer” value [16, 27] was 0. The “Plant response rating, Pigweed, Palmer” value ([16]; 125 g ai/ha, 0 to 100 scale) was 0, the “Plant response rating, Oat, Wild” value [17, 27] was 0 and the “Plant response rating, Oat, Wild” value ([17]; 125 g ai/ha, 0 to 100 scale) was 0. The “Plant response rating, Goosegrass” value [18, 27] was 50, the “Plant response rating, Goosegrass” value ([18]; 125 g ai/ha, 0 to 100 scale) was 80 and the “Plant response rating, Ragweed” value [19, 27] was 50. For the same compound, the “Plant response rating, Ragweed” value ([19]; 125 g ai/ha, 0 to 100 scale) was 90, the “Plant response rating, Kochia” value (kochia (Bassia scoparia) [20]; [27]) was 20 and the “Plant response rating, Kochia” value (kochia (Bassia scoparia) [20]; 125 g ai/ha, 0 to 100 scale) was 70. The “Plant response rating, Corn” value (corn (Zea mays) [21]; [28]) was 0, the “Plant response rating, Corn” value (corn (Zea mays) [21]; [29]) was 60 and the “Plant response rating, Galium” value [22, 27] was 60. For the same compound, the “Plant response rating, Galium” value ([22]; 125 g ai/ha, 0 to 100 scale) was 90, the “Plant response rating, Goosegrass” value [23, 28] was 80 and the “Plant response rating, Goosegrass” value [23, 29] was 90. The “Plant response rating, Ryegrass, Italian” value [24, 28] was 60, the “Plant response rating, Ryegrass, Italian” value [24, 29] was 90 and the “Plant response rating, Rice (0 to 100 scale, 0 is no effect, 100 is complete control)” value (rice (Oryza sativa)) was 10. The “Plant response rating, Blackgrass” value ([25]; 31 g ai/ha, 10 days) was 0, the “Plant response rating, Blackgrass” value ([25]; 125 g ai/ha) was 0 and the “Plant response rating, Ducksalad (0 to 100 scale, 0 is no effect, 100 is complete control)” value [26] was 90.
